The text below walks through data of article PMC8271538, “Chemical Modulation of the 1-(Piperidin-4-yl)-1,3-dihydro-2H-benzo[d]imidazole-2-one Scaffold as a Novel NLRP3 Inhibitor” (Molecules, 2021).

SMILES strings stand for the structures.

Data set [1] addresses T1, human recombinant NLRP3 (Homo sapiens, UniProt Q96P20).
T1 construct: made in house; host or cells: HEK293T cells (transient transfection, captured from lysate on GFP-Trap Sepharose)
The experiment in a line: In vitro NLRP3 ATPase activity, on-bead ADP-Glo assay with immobilised NLRP3-GFP. Type of data set: biochemical. The conditions noted are these: for Inhibition of NLRP3 ATPase activity (% reduction in ATP hydrolysis relative to vehicle control) / inhibition at 100 µM: 100 μM compound, ATP 800 μM, mean ± SEM, n = 4; for inhibition at 100 µM: read-out: Inhibition of NLRP3 ATPase activity (% reduction in ATP hydrolysis relative to vehicle control); for NLRP3 ATPase inhibition at 1 mM compared with 100 µM: 1 mM vs 100 µM compound, data not shown. (In general: In ADP-Glo the light output rises with the ADP produced.)

The test system of data set [2] is IL-1β release in differentiated THP-1 cells. Nature of the data set: IL-1β release (ELISA) in supernatants of LPS/ATP-treated differentiated THP-1 cells. Format: cell-based, human. The conditions noted are these: same experiments as pyroptosis, vs vehicle-treated cells, mean ± SEM; for inhibition at 10 µM: Homo sapiens, THP-1, 10 µM test compound. As to the method:
Different techniques could be used to study NLRP3 inhibitors; the use of differentiated THP-1 cells treated with NLRP3 activating stimuli is suitable for the screening of large series of compounds [48]. All the synthesised compounds (Figure 2) were evaluated for their NLRP3 inhibitory activity by measuring their ability to prevent NLRP3-dependent pyroptosis in differentiated THP-1 cells. THP-1 cells were differentiated into macrophages by treatment with phorbol-myristate acetate (PMA; 50 nM; 24 h) and then treated with lipopolysaccharide (LPS; 10 µg/mL; 4 h) to promote NLRP3 expression. The cells were then incubated with test compounds at the fixed concentration of 10 µM for 1 h. Test compounds were dissolved in serum free medium containing 0.1% DMSO as the vehicle. NLRP3 was activated by the addition of ATP (5 mM), and the pyroptotic cell death was evaluated after 1.5 h by measuring the lactate dehydrogenase (LDH) released in the cell supernatants. The obtained results, expressed as pyroptosis% decrease with respect to vehicle-treated cells, are collected in Table 1. In the same experiments, the release of IL-1β was measured via an ELISA assay and the results, expressed as % inhibition of IL-1β release versus vehicle-treated cells, are reported in Table 1. Finally, the cytotoxicity of the synthesised compounds was evaluated by MTT assay after treatment of THP-1 cells with increasing concentration of test compounds (0.1–100 µM) for 72 h. […] The structural modulation of compound 2 was then carried out in order to understand whether it was possible to restore/increase the activity without the re-introduction of a Michael acceptor substructure.
Human myelomonocytic THP-1 cells were cultured in RPMI 1640 medium (Aurogene, Rome, Italy) supplemented with fetal bovine serum (10%; Aurogene), L-glutamine (2 mM; Aurogene), penicillin (100 IU/mL; Aurogene) and streptomycin ([…]; Aurogene). Cell culture medium was replaced every 2−3 days, and the cultures were maintained at 37 °C and 5% CO2 in a fully humidified incubator. The day before each experiment, cells were plated in 48-well culture plates (90.000 cells/well) and were differentiated by treatment with PMA (50 nM, 24 h; Sigma-Aldrich). PMA-differentiated THP-1 cells were washed twice with phosphate-buffered saline (PBS) and primed with LPS (10 μg/mL, 4 h; Sigma-Aldrich) in serum-free medium. Cells were then incubated with compounds dissolved in medium containing 0.1% DMSO for 1 h and cell death was triggered with ATP (5 mM, 90 min; Sigma-Aldrich). MCC950 (Sigma-Aldrich batch #45216 and batch #85021 and from Crysdot (product n. CD31002496; OS05876-18070932) was used in the experiments.
IL-1β release was quantified in differentiated THP-1 supernatant, obtained as previously described, using Human IL-1 beta Uncoated ELISA kit (Invitrogen, Waltham, MA, USA), according to the manufacture’s instruction.
(In general: ELISA stands for enzyme-linked immunosorbent assay.)

Data set [3] concerns NLRP3-dependent pyroptosis in differentiated THP-1 cells. Nature of the data set: NLRP3-dependent pyroptosis (LDH release) in PMA-differentiated, LPS-primed, ATP-triggered THP-1 cells. Type of data set: cell-based, human. As to conditions: for Pyroptosis Decrease, % inhibition at 10 µM / inhibition at 10 µM: 10 µM test compound, 1 h before ATP (5 mM, 90 min), vs vehicle-treated cells, mean ± SEM, NA = not active at 10 µM; for inhibition at 1 µM / inhibition at 10 µM: Homo sapiens; for inhibition at 1 µM: THP-1, 1 µM test compound (Figure 3); for inhibition at 10 µM: THP-1, 1.5 h, read-out: Pyroptosis Decrease, % inhibition at 10 µM. For orientation: Release of lactate dehydrogenase indicates damage to the cell membrane.

Data set [4] deals with THP-1 cells. The conditions noted are these: 72 h treatment, 0.1–100 µM, MTT; TC50 ± SEM of three experiments.
Data set [5] relates to DNBS-induced colitis. Details: method as in PMID 28410442, PMID 30559669. As to conditions: oral administration in mice at both 50 and 25 mg/kg; cited from earlier work.
Data set [6] has as its system isolated recombinant NLRP3. Details: method as in PMID 28410442. As to conditions: cited from earlier work.

T1 sequence (Q96P20 whole entry): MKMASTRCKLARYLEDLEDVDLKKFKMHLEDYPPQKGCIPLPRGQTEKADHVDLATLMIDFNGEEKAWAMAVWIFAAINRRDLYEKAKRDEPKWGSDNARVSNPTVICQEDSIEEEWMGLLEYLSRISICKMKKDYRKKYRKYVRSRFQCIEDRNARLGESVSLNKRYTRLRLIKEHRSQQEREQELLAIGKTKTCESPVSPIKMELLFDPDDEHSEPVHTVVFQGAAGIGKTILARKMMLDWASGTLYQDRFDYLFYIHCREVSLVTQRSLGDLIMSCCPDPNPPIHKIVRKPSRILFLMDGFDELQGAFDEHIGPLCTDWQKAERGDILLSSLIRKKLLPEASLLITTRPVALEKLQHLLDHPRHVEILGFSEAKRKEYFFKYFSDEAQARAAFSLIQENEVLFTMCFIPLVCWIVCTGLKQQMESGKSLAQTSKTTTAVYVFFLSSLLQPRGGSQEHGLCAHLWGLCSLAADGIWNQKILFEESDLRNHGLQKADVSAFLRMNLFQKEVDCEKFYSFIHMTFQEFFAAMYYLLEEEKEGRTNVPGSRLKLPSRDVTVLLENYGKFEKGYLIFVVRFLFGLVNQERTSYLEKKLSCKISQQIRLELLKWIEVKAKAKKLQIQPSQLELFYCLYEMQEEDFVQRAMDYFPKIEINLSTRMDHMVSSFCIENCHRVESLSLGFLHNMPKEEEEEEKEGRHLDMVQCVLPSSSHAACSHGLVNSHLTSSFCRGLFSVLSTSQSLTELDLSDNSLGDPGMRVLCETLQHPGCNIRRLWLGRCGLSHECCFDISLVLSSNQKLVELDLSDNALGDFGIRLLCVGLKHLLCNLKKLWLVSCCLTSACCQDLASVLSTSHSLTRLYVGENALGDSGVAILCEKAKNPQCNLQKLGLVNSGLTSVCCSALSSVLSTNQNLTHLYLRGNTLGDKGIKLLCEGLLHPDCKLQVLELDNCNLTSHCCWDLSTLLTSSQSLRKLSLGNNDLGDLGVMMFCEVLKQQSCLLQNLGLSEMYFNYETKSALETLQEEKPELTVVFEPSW

As a reminder, the inhibition is the share of the control response that was lost under treatment. Regarding `N#CN=C(NCc1ccccc1)NC1CCN(C(=O)CCc2ccccc2Cl)CC1` [Compound 13, 1-benzyl-3-(1-(3-(2-chlorophenyl)propanoyl)piperidin-4-yl)-2-cyanoguanidine], in data set [1], the “Inhibition of NLRP3 ATPase activity (% reduction in ATP hydrolysis relative to vehicle control)” value is recorded as “significant inhibition of ATPase activity”, the inhibition at 100 µM was determined as 26.5 ± 3.1% and the “NLRP3 ATPase inhibition at 1 mM compared with 100 µM” value is “no significant differences”. The “IL-1β Inhibition, % inhibition at 10 µM” value in data set [2] (10 µM test compound, 10 µM) is recorded as “able to inhibit”. For the same compound, the inhibition at 10 µM in data set [2] worked out at 25.2 ± 4.9%. Besides, in data set [3], the “Pyroptosis Decrease, % inhibition at 10 µM” value was “able to inhibit”; the inhibition at 1 µM lay within 20 to 30%; the inhibition at 10 µM is 45 ± 8.8%. The “Cytotoxicity TC50” value in data set [4] is given as 85.7 ± 5.6 µM.

`CCOC(=O)Cn1c(=O)n(C(=O)CCc2ccccc2Cl)c2ccccc21` [Compound 17, Ethyl 2-(3-(3-(2-chlorophenyl)propanoyl)-2-oxo-2,3-dihydro-1H-benzo[d]-imidazol-1-yl)acetate]: in data set [1], the “Inhibition of NLRP3 ATPase activity (% reduction in ATP hydrolysis relative to vehicle control)” value was “inactive”. Moreover, the inhibition at 10 µM in data set [2] was 24.2 ± 11.2%; in data set [3], 25.1 ± 4%. In data set [4], the “Cytotoxicity TC50” value amounted to 95.4 ± 1.1 µM.

Consider `O=C(O)Cn1c(=O)n(C(=O)CCc2ccccc2Cl)c2ccccc21` [Compound 18, 2-(3-(3-(2-chlorophenyl)propanoyl)-2-oxo-2,3-dihydro-1H-benzo[d]-imidazol-1-yl)acetic acid], for which, in data set [1], the “Inhibition of NLRP3 ATPase activity (% reduction in ATP hydrolysis relative to vehicle control)” value was “able to reduce ATPase activity”, the inhibition at 100 µM was 27.2 ± 6.3% and the “NLRP3 ATPase inhibition at 1 mM compared with 100 µM” value was “no significant differences”. Also, the inhibition at 10 µM in data set [2] amounted to 21.1 ± 3.1%. Besides, in data set [3], the “Pyroptosis Decrease, % inhibition at 10 µM” value is on record as “active”; the inhibition at 1 µM was 20 to 30%; the inhibition at 10 µM turned out to be 36.4 ± 11.1%. Besides, the “Cytotoxicity TC50” value in data set [4] was more than 100 µM.

As to `O=C(CCc1ccccc1Cl)n1c(=O)n(Cc2nn[nH]n2)c2ccccc21` [Compound 19, 1-((2H-tetrazol-5-yl)methyl)-3-(3-(2-chlorophenyl)propanoyl)-1,3-dihydro-2H-benzo[d]imidazol-2-one], the “Inhibition of NLRP3 ATPase activity (% reduction in ATP hydrolysis relative to vehicle control)” value in data set [1] was “reduced the inhibitory potential”. Besides, the results for the inhibition at 10 µM in data set [2] and in data set [3] were less than 10% and 26.2 ± 1.6%, respectively. Also, the “Cytotoxicity TC50” value in data set [4] is on record as more than 100 µM.

In the case of `C=C(Cc1ccccc1Cl)C(=O)OCC` [INF39], the “Prevention of DNBS-induced colitis” value in data set [5] is given as “able to prevent DNBS-induced colitis”. Further, the “Inhibition of ATP hydrolysis by NLRP3” value in data set [6] was “inhibited ATP hydrolysis”.
